Experimental data published in ChEMBL document CHEMBL5465560, “Selectivity Literature for EUbOPEN Chemogenomic Library” (2024).

Key:
[1] = molecular target: Protein kinase C beta type (Homo sapiens, UniProt P05771); assay: Selectivity interaction (ProQinase) EUB0000171b PRKCB
[2] = molecular target: Serine/threonine-protein kinase 26 (Homo sapiens, UniProt Q9P289); assay: Selectivity interaction (KinomeScan (DiscoverX)) EUB0001079a STK26; conditions: at 1 µM
[3] = molecular target: T1, Peregrin (Homo sapiens) (UniProt P55201); assay: Selectivity interaction (Human bromodomain panel (DSF assay)) EUB0000233b BRPF1
T1 sequence (whole entry): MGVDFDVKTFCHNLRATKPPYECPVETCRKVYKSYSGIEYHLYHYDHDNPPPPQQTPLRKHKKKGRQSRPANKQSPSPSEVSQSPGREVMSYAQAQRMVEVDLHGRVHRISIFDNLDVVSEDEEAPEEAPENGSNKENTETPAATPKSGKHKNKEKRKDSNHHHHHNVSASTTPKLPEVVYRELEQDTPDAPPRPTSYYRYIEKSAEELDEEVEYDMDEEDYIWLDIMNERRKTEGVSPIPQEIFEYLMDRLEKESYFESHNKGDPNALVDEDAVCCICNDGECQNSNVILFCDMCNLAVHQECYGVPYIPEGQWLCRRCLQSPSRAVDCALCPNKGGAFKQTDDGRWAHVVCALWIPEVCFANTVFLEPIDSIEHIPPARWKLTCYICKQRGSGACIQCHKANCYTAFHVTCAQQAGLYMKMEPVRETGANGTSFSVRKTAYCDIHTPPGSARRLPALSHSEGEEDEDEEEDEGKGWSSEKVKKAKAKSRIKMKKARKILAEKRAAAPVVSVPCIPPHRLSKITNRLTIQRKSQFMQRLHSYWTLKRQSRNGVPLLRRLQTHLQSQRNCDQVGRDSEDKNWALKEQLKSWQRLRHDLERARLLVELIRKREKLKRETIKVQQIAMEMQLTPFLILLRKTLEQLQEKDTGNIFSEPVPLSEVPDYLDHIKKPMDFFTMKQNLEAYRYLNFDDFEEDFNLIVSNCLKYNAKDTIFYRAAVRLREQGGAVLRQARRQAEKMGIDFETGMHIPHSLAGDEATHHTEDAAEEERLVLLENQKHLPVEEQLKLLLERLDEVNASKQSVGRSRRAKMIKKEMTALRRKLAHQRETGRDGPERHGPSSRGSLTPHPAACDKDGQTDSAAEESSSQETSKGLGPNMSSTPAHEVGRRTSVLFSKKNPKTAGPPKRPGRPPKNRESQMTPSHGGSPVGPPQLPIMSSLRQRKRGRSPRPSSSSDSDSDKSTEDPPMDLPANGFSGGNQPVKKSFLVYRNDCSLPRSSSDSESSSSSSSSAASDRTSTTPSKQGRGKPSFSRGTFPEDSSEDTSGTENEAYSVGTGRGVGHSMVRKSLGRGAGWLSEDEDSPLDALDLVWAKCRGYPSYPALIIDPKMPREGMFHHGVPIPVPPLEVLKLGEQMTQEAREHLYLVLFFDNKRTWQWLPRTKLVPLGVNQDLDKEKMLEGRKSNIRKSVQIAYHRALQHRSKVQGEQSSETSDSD

[4] = molecular target: Mitogen-activated protein kinase kinase kinase kinase 4 (Homo sapiens, UniProt O95819); assay: Selectivity interaction (Kinase panel (KiNativ target engagement assay in Jurkat cells)) EUB0001635a MAP4K4; assay type: cell-based; conditions: Selectivity number of off-targets 0.0, Selectivity number of targets 233.0, Source Knowledge https://www.sciencedirect.com/science/article/pii/S2451945619300674?via%3Dihub, at 1 µM
[5] = test system: Epidermal growth factor receptor (Homo sapiens), P00533 [L858R]; conditions: at 10 µM
Chain of Epidermal growth factor receptor (Homo sapiens), P00533 [L858R] (P00533 whole entry L858R): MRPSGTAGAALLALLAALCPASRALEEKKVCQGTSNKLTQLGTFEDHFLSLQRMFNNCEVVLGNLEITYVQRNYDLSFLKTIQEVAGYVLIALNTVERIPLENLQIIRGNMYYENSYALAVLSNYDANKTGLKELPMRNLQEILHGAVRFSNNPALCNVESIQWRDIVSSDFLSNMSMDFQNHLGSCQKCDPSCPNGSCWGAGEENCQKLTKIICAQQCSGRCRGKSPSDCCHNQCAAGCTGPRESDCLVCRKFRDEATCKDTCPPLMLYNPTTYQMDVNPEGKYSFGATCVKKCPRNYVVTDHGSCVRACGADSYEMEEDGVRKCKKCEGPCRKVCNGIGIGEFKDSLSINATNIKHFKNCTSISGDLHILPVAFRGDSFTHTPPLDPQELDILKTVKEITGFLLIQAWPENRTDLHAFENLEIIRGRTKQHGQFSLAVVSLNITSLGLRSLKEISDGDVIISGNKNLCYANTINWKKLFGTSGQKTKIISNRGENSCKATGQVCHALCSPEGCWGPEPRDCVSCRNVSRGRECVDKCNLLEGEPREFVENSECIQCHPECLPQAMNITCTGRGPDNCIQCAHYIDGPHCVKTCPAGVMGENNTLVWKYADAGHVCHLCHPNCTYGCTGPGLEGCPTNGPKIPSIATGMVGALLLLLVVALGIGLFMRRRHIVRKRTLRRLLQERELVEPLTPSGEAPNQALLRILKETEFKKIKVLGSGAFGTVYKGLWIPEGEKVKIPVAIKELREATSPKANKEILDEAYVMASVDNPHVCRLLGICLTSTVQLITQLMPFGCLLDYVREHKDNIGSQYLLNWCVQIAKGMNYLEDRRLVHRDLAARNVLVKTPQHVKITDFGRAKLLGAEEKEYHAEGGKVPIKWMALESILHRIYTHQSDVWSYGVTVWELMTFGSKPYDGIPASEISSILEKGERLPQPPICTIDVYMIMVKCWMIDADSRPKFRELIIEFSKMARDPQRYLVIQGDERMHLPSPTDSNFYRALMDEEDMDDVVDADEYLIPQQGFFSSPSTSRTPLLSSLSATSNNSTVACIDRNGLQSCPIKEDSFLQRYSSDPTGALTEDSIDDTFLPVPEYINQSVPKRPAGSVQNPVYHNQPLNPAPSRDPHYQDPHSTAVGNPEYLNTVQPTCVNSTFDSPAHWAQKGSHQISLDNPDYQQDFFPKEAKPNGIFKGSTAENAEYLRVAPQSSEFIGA

[6] = molecular target: Vascular endothelial growth factor receptor 3 (Homo sapiens, UniProt P35916)
Chain of Vascular endothelial growth factor receptor 3 (P35916 whole entry): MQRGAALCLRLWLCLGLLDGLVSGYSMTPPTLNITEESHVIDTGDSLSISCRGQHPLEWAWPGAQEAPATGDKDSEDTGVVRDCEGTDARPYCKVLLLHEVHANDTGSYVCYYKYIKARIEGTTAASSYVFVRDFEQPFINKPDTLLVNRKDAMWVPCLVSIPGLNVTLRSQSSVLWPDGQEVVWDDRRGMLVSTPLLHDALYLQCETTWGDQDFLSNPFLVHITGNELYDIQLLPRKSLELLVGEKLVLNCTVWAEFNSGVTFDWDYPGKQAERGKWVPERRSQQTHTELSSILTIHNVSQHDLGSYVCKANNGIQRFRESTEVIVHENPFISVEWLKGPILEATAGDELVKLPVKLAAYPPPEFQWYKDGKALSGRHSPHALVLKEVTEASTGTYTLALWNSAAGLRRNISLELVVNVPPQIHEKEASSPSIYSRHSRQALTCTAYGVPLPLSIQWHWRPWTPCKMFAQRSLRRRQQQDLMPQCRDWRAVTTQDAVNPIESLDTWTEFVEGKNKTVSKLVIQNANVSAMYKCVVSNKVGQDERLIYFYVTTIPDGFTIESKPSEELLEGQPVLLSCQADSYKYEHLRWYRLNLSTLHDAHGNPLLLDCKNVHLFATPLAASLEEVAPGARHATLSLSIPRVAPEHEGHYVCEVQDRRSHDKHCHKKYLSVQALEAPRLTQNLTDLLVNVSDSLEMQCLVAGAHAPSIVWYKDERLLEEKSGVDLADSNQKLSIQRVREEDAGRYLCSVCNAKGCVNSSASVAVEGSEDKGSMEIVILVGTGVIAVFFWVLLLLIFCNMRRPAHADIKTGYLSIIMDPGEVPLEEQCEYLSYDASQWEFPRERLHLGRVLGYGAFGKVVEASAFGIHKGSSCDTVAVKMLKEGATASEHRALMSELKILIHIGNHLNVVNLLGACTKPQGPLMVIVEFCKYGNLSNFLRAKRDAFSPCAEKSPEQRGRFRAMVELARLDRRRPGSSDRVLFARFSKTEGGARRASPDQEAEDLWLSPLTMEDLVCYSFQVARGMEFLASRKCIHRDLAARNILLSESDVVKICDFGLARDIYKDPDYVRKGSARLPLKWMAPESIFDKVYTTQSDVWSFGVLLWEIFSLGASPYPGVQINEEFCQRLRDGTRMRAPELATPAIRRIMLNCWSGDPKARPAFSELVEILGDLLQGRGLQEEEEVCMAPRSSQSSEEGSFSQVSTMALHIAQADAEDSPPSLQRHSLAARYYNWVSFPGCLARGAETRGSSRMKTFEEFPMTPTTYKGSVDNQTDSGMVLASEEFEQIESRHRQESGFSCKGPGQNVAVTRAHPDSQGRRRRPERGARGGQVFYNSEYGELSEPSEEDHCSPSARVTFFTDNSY

[7] = molecular target: Serine/threonine-protein kinase MARK2 (Homo sapiens) (UniProt Q7KZI7); assay: Selectivity interaction (ActivX KiNativ screen (kinase selectivity in THP-1 cell lysates)) EUB0000639a MARK2; assay type: subcellular; conditions: lysate, at 5 µM
Chain of Serine/threonine-protein kinase MARK2 (Homo sapiens) (Q7KZI7 whole entry): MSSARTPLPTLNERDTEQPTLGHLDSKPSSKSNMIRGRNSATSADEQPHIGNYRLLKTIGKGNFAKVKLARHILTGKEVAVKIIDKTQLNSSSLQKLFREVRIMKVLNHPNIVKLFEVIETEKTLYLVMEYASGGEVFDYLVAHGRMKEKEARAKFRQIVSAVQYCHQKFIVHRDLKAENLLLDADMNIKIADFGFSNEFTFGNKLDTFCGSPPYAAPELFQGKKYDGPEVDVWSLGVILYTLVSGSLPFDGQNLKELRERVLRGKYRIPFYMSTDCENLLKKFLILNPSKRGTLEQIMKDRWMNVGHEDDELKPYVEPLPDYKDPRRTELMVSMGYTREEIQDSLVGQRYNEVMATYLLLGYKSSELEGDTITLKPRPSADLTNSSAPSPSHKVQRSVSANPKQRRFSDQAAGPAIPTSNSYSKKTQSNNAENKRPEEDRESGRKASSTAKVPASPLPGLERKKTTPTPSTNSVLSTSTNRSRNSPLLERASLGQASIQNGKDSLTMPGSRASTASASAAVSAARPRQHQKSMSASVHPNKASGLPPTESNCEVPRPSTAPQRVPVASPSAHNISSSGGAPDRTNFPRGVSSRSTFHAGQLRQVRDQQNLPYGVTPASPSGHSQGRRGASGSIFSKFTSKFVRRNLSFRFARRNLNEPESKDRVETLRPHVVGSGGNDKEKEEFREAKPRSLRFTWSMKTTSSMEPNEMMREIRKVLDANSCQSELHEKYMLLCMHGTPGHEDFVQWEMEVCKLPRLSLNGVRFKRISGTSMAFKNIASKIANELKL

[8] = molecular target: Mitogen-activated protein kinase 14 (Homo sapiens, UniProt Q16539); assay: Selectivity interaction (KinomeScan (DiscoverX)) EUB0001049a MAPK14; conditions: at 1 µM
[9] = molecular target: Serine/threonine-protein kinase Nek6 (Homo sapiens) (UniProt Q9HC98); assay: Selectivity interaction (KinomeScan (DiscoverX)) EUB0001049a NEK6; conditions: at 1 µM
Chain of Serine/threonine-protein kinase Nek6 (Homo sapiens) (Q9HC98 whole entry): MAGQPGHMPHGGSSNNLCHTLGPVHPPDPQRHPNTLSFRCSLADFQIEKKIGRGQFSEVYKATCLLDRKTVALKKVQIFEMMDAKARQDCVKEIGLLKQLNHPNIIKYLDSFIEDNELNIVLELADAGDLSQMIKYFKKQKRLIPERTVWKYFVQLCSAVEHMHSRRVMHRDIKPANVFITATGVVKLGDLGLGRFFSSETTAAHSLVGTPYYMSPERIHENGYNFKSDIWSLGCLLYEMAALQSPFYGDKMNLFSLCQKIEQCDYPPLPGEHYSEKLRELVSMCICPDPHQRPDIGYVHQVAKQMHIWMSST

[10] = molecular target: T2, Serine/threonine-protein kinase RIO1 (Homo sapiens) (UniProt Q9BRS2); assay: Selectivity interaction (KinomeScan (DiscoverX)) EUB0000045b RIOK1
T2 sequence (whole entry): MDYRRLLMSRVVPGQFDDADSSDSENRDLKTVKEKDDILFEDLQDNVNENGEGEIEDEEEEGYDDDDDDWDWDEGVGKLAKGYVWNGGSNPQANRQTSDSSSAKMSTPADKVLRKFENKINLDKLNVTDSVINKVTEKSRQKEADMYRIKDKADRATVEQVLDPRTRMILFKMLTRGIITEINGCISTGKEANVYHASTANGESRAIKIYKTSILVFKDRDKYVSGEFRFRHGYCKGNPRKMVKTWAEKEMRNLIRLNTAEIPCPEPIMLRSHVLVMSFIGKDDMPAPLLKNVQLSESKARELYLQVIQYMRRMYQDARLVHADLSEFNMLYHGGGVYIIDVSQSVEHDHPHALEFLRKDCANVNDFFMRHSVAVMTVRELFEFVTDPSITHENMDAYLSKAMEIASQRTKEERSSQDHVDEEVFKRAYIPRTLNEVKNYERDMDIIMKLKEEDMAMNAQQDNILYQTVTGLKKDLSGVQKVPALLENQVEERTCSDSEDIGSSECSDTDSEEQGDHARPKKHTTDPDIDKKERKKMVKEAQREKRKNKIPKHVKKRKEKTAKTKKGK

[11] = molecular target: T3, Mitogen-activated protein kinase 13 (Homo sapiens) (UniProt O15264); assay: Selectivity interaction (ActivX KiNativ screen (ex vivo kinase selectivity in human PBMCs)) EUB0001619a MAPK13; assay type: cell-based; conditions: PBMC, at 1 µM
T3 sequence (whole entry): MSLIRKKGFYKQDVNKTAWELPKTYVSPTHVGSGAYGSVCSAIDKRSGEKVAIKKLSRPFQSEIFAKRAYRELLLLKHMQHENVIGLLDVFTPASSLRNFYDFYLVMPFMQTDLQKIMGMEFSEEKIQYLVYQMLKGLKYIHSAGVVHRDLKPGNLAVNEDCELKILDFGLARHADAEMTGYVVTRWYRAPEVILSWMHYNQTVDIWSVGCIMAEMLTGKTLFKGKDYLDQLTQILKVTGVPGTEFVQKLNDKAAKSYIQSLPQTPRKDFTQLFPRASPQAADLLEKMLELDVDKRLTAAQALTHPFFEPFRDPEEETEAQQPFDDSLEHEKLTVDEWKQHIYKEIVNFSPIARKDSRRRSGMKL

Chain of Protein kinase C beta type (P05771 2-671 limits assumed): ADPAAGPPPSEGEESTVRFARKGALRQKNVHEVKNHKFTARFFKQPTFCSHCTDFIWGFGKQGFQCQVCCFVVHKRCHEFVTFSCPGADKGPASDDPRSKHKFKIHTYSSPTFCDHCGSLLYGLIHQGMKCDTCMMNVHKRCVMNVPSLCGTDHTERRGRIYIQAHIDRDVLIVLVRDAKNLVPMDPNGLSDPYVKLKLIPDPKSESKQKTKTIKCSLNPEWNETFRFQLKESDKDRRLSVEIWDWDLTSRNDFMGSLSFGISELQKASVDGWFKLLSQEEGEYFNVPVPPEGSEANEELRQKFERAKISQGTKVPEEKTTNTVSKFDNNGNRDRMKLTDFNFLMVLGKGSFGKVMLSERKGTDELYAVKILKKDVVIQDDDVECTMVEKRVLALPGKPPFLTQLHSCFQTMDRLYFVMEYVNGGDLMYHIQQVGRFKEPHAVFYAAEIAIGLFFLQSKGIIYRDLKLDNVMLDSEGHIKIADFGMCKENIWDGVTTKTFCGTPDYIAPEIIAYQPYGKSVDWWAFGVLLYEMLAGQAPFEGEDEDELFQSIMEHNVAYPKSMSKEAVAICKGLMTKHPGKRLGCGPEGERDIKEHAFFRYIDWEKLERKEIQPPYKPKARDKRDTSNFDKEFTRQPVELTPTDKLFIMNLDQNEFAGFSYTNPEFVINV
Chain of Serine/threonine-protein kinase 26 (Q9P289 2-416 limits assumed): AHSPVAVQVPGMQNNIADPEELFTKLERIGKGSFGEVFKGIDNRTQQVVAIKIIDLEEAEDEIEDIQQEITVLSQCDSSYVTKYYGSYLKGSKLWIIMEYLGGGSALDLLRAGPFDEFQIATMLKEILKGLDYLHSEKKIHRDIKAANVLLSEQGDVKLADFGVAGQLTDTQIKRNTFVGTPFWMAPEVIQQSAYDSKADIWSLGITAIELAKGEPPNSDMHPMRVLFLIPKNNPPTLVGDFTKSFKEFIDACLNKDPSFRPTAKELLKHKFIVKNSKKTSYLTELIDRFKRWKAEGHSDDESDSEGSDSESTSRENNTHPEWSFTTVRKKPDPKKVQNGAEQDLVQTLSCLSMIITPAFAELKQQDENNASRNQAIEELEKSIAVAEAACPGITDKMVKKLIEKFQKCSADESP

Compound: C=CC(=O)Nc1cccc(C(=O)Nc2ccc(Nc3cc(-c4[nH]c(SC)nc4C)ccn3)cc2)c1
- % of control ([1]; at 1 µM): 111%
- % of control ([1]; at 5 µM): 106%

Compound: Nc1cnc(N2CCc3cc(S(=O)(=O)Nc4c(F)cc(Cl)cc4F)cc(N4CCCC4=O)c32)nc1 [TP-020n]
- % of control [2]: 83%

Compound: CN(C)CCCOc1ccc(-c2cc(NCCCn3cccn3)nc(S(C)(=O)=O)n2)cc1
- dTM [3]: < 2 K

Compound: C=CC(=O)Nc1ccc(C(=O)Nc2[nH]nc3c2CN(C(=O)N[C@H](CN(C)C)c2ccccc2)C3(C)C)cc1
- % of engagement [4]: -15.4%

Compound: Cc1cc([C@@H](C)Nc2ccccc2C(=O)O)c2nc(N3CCOCC3)cc(=O)n2c1 [AZD-6482]
- % of control [5]: 100%

Compound: CCc1cccc(CC)c1NC(=O)c1nn(C)c2c1CCc1cnc(Nc3ccc(C(=O)NC4CCN(C)CC4)cc3OC(F)(F)F)nc1-2
- IC50 [6]: > 10 µM

Compound: CC[C@@H]1[C@H](F)C(=O)N[C@@H]1COc1nccc2cc(C(N)=O)c(OC)cc12 [ZIMLOVISERTIB]
- % of inhibition [7]: 51.5%

Compound: COc1cc(Nc2nc(C)cc(-c3cnn4nc(OC)ccc34)n2)cc(C(F)(F)F)c1
- % of control [8]: 87%
- % of control [9]: 89%

Compound: C=CC(=O)Nc1cc(-n2c(=O)ccc3cnc4ccc(-c5ccc(NS(C)(=O)=O)cc5)cc4c32)ccc1C
- % of control ([10]; at 1 µM): 20%
- % of control ([10]; at 10 µM): 52%

Compound: N#Cc1cccc(-c2c[nH]c3ncnc(N4CCOCC4)c23)c1
- % of inhibition [11]: -6%
